Results as given in PubChem BioAssay AID179 (DTP/NCI, 2004).
Activity calls are given as the source filed them.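 How the source made its calls: active means compounds giving half or more protection of infected cells from virus-caused growth loss, again on retest; inactive means the rest.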 Where a SMILES comes first, the peptide text is derived from it. The star is where a group is joined. Cbz = O=C(OCc1ccccc1)*

Tested on: CEM cells HIV-1 protection, formazan growth assay
Test: NCI AIDS Antiviral Assay
Conditions: for IC50: measured here: growth of uninfected CEM cells
Summary of the method: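 Steps: treat uninfected and HIV-1-infected human CEM cells at five drug levels; quantify growth by soluble formazan; retest any compound reaching 50% protection; classify actives from the retest.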

## CC(O)(C#N)CC(O)(C(F)(F)Cl)C(F)(F)Cl (stereo not drawn)
  EC50: 195 µM
  IC50: > 200 µM

## O=[N+]([O-])c1ccc(NCCS(=O)(=O)O)c([N+](=O)[O-])c1
  EC50: > 794 µM
  IC50: > 794 µM

## O=C(NNC(=O)c1ccco1)c1ccco1
  EC50: > 200 µM
  IC50: > 200 µM

## COc1cc(C2C(C(=O)Nc3ccccc3)=C(C)NC(C)=C2C(=O)Nc2ccccc2)ccc1O
  outcome: inactive

## O=C(NNC(=S)Nc1ccc(Cl)cc1)c1cc(-c2ccccc2)nc2ccccc12
  EC50: > 200 µM
  IC50: 8.51 µM

## O=S(O)CCCCSSCC(O)C(O)CSSCCCCS(=O)O (stereo not drawn)
  outcome: inactive

## O=C(O)CCC(NC(=O)OCc1ccccc1)C(=O)NC(Cc1cnc[nH]1)C(=O)O (stereo not drawn) (Cbz-Glu-His-OH; configuration not given here)
  EC50: > 200 µM
  IC50: > 200 µM

## CN1CCC(O)(C(C)(C)C)CC1
  EC50: > 200 µM
  IC50: > 200 µM

## Cc1c(C(=O)O)oc2ccc([N+](=O)[O-])cc12
  outcome: inactive

## CN(C)c1ccc(/C=C2\CCc3ccccc3C2=O)cc1
  EC50: > 9.77 µM
  IC50: 5.5 µM

## COc1ccc(CCc2ncc[nH]2)cc1
  EC50: > 708 µM
  IC50: > 708 µM

## Cc1ccnc2nc3[nH]c4ccccc4c3cc12
  EC50: > 126 µM
  IC50: > 126 µM

## O=c1[nH]c2cc3[nH]c4ncccc4c(=O)c3cc2[nH]1
  EC50: 148 µM
  IC50: > 200 µM

## CC[C@@H]1C[C@H]2CC3c4[nH]c5ccc(O)cc5c4CCN(C2)C31
  EC50: > 372 µM
  IC50: 93.3 µM

## COC(=O)C(CC(=O)c1cc2c(cc1I)OCO2)Cc1cc(OC)c(OC)c(OC)c1I (stereo not drawn)
  EC50: > 14.8 µM
  IC50: > 14.8 µM

## COc1ccc(C2=C(Cl)c3cc(OC)c(OC)cc3C2Cl)cc1 (stereo not drawn)
  outcome: inactive

## CC(=O)NC(CCSSCCC(NC(C)=O)C(=O)ON1C(=O)CCC1=O)C(=O)ON1C(=O)CCC1=O (stereo not drawn)
  EC50: > 200 µM
  IC50: > 200 µM

## CC1(C)CC[C@]2(C(=O)O)CCC3(C)C(=CCC4[C@@]5(C)CC[C@H](OC6OCC(O)C(O)C6OC6OC(CO)C(O)C(O)C6O)C(C)(C)C5CC[C@]43C)C2C1 (stereo partly drawn)
  outcome: inactive

## COc1ccc([C@H]2CC(=O)N3CCCC3N2)cc1 (stereo partly drawn)
  EC50: > 200 µM
  IC50: > 200 µM

## Nc1c(O)c(S(=O)(=O)O)c(O)c2c1C(=O)c1ccccc1C2=O
  EC50: 200 µM
  IC50: 234 µM

## CSc1nc(C)c(Br)c(=O)n1C1OC(COC(C)=O)C(OC(C)=O)C(OC(C)=O)C1OC(C)=O (stereo not drawn)
  EC50: > 200 µM
  IC50: > 200 µM

## COc1ccc2c(c1OC)C(=O)O[C@@H]2[C@H]1c2c(cc3c(c2OC)OCO3)CCN1C
  EC50: > 200 µM
  IC50: 24.5 µM

## COc1ccc(C)cc1-c1cc(Sc2ccccc2)c(-c2cc(C)ccc2OC)o1
  EC50: > 53.7 µM
  IC50: > 53.7 µM

## CC(C)(C)OC(=O)NC(Cc1ccccc1)OCc1ccccc1 (stereo not drawn)
  EC50: > 200 µM
  IC50: 45.7 µM

## CCOC(=O)NC(=O)c1cn(CCCOC(=O)CCCCCCCCC(=O)OCCCn2cc(C(=O)NC(=O)OCC)c(=O)[nH]c2=O)c(=O)[nH]c1=O
  outcome: inactive

## Nc1ncnc2c1ncn2C1OC(CO)(C(F)(F)F)C(O)C1O (stereo not drawn)
  EC50: > 200 µM
  IC50: 182 µM

## COc1ccc(NC(=O)CC/C(CC(=O)C(C)(C)C)=N\NC(=O)C(=O)NN)cc1
  outcome: inactive

## CC(=O)OC(C(=O)C(O)C(C)C)C(C)C (stereo not drawn)
  EC50: > 832 µM
  IC50: > 832 µM

## CCCC(=N\N=C(N)N)/C(CCC)=N/N=C(N)N
  EC50: > 186 µM
  IC50: > 186 µM

## CC1(O)C=CC2CCC1C2O (stereo not drawn)
  EC50: > 1620 µM
  IC50: > 1620 µM

## COC(=O)C1=CC(=O)OC1(OO)c1ccc(Br)cc1 (stereo not drawn)
  EC50: > 200 µM
  IC50: 38.9 µM

## NS(=O)(=O)c1ccc(N=Cc2cc(Cl)cc(Cl)c2O)cc1
  EC50: > 200 µM
  IC50: 16.6 µM

## O=Cc1c2c(cc3c1CC1(C3)Cc3cc4c(c(C=O)c3C1)CCCC4)CCCC2
  EC50: > 200 µM
  IC50: 123 µM

## CC(=O)Nc1cc(S(=O)(=O)O)cc2cc(S(=O)(=O)O)cc(O)c12
  EC50: > 200 µM
  IC50: > 200 µM

## O=C1C=CC2O[C@H](c3ccccc3)[C@H](O)C2O1 (stereo partly drawn)
  EC50: > 1070 µM
  IC50: 5.37 µM

## CC1=C(C(=O)Nc2ccc([N+](=O)[O-])cc2)C(c2ccccc2O)C(C(=O)Nc2ccc([N+](=O)[O-])cc2)=C(C)N1
  EC50: > 49 µM
  IC50: 30.9 µM

## Cc1cc2c(=O)cc(-c3ccccc3Cl)oc2c(C(=O)O)c1C
  EC50: > 200 µM
  IC50: > 200 µM

## CN(C)/C=N\c1c(C#N)c(CC#N)nn1-c1ccccc1
  EC50: > 200 µM
  IC50: > 200 µM

## CCOC(=O)C1C(c2ccc(OC)cc2)c2c([nH][nH]c2=O)CC1(O)OCC (stereo not drawn)
  outcome: inactive

## CC(C)OP(=O)(OC(C)C)C([CH2][Sn]([CH3])([CH3])[Cl])P(=O)(OC(C)C)OC(C)C
  EC50: > 457 µM
  IC50: 8.32 µM

## COc1nc(N)c(N=O)c(OCc2ccccc2)n1
  EC50: > 200 µM
  IC50: 3.98 µM

## CCOC(=O)CN(c1sc(C)c(C)c1C(=O)OCC)S(=O)(=O)c1ccc(C)cc1
  EC50: > 200 µM
  IC50: 11.7 µM

## C=CCn1c(=S)sc2c(C(=O)OCC)c3c(C)cc(C)cn3c2c1=O
  EC50: > 3.89 µM
  IC50: > 3.89 µM

## Nc1nc2c(ncn2C2COC(CO)O2)c(=O)[nH]1 (stereo not drawn)
  EC50: 30.2 µM
  IC50: > 200 µM

## Cc1ccc(S(=O)(=O)N/N=C2/CC[C@H](C(C)(C)C)C[C@@H]2C)cc1
  EC50: > 200 µM
  IC50: 21.9 µM

## O=C1NC(=S)N/C1=C\c1cccs1
  EC50: > 200 µM
  IC50: 182 µM

## CCCCCCCCCCCCC1=C(OC)C(=O)c2ccc(C)nc2C1=O
  outcome: inactive

## CC(=S)NC=C(C(N)=O)C(N)=O
  EC50: > 200 µM
  IC50: > 200 µM

## COc1ccc(N=C2C(=Nc3ccc(OC)cc3)N(c3ccc(N(C)C)cc3)C(=S)N2c2ccc(OC)cc2)cc1
  EC50: > 20 µM
  IC50: 0.692 µM

## CCC(C)C(N)C(=O)NCC(=O)NC(CCCN=C(N)N)C(=O)NC(CC(N)=O)C(=O)NC(CC(C)C)C(=O)NC(CC(C)C)C(=O)NC(C(=O)NC(CCC(N)=O)C(=O)NC(C(=O)NCC(=O)O)C(C)CC)C(C)O (stereo not drawn) (H-IGRNLLTQIG-OH; configuration not given here)
  outcome: inactive

## COc1ccc(N=NC(=O)NC(CC(C)C)C(N)=O)cc1 (stereo not drawn)
  EC50: > 200 µM
  IC50: 3.39 µM

## O=C1/C(=C/c2ccc(Br)s2)NC(=S)N1CN1CCCCC1
  EC50: > 200 µM
  IC50: 38 µM

## COc1ccc(C(OCC2OC(n3ccc(NC(=O)c4ccccc4)nc3=O)C(O)C2O)(c2ccccc2)c2ccccc2)cc1 (stereo not drawn)
  EC50: > 200 µM
  IC50: 9.33 µM

## CCSc1c2cc(OC)ccc2nc2ccc(OC)cc12
  EC50: > 200 µM
  IC50: 6.92 µM

## Cc1nccc2c(C)c3sc4ccccc4c3cc12
  EC50: > 91.2 µM
  IC50: 2.14 µM

## CC(C)(Oc1ccc(C(=O)c2ccc(Cl)cc2)cc1Cl)C(=O)Nc1c(Cl)cccc1Cl
  EC50: > 7.59 µM
  IC50: > 7.59 µM

## CCOC(=O)C1=C(C)N(NC(N)=O)C2(N)N(NC(N)=O)C(C)=C(C(=O)OCC)C12C(=O)OCC (stereo not drawn)
  EC50: > 513 µM
  IC50: > 513 µM

## CCOC(=O)Nc1nc2cc(C(=O)OC)n(C)c2s1
  EC50: > 200 µM
  IC50: > 200 µM

## COc1cc2c(cc1OC)[C@@](C)(C(O)C(O)C(C)(C)O)NCC2 (stereo partly drawn)
  EC50: > 200 µM
  IC50: > 200 µM

## COc1cc(/C=N\NC(=O)C[N+](C)(C)C)cc(OC)c1OC
  EC50: > 200 µM
  IC50: > 200 µM

## CN(C(=N)c1ccccc1)c1ccccc1
  outcome: inactive

## C[C@H](OC(=O)/C=C/c1ccc(O)c(O)c1)[C@H](C)OC(=O)/C=C/c1ccc(O)c(O)c1
  EC50: > 200 µM
  IC50: 3.47 µM

## COC1CC(N)C(O)C(CN=[N+]=[N-])O1 (stereo not drawn)
  outcome: inactive

## O=c1c2cncnc2sc2nc3ccccc3n12
  EC50: > 200 µM
  IC50: > 200 µM

## C=C(CCC(=O)N(CCc1c[nH]c2ccccc12)C(=O)c1ccccc1CSCC)C(=O)OC
  EC50: > 200 µM
  IC50: 15.1 µM

## CCN(CC)c1c(N(CC)CC)c(=O)c1=O
  EC50: > 200 µM
  IC50: 6.03 µM

## O=C1c2c(ccc3c2CCCC3)CC1Cc1ccc2c(c1)CCCC2 (stereo not drawn)
  EC50: > 200 µM
  IC50: > 200 µM

## Cn1c(=O)c2[nH]cnc2n(CC(N)=O)c1=O
  EC50: > 562 µM
  IC50: > 562 µM

## C=CCP(=O)(c1ccccc1)c1ccccc1
  EC50: 0.0631 µM
  IC50: > 200 µM

## C[C@H]1[C@H](C)N1CC(O)Cn1ccnc1[N+](=O)[O-] (stereo partly drawn)
  EC50: > 200 µM
  IC50: > 200 µM

## C=CCN1CCC2(CC1)NC(=O)c1ccccc1O2
  EC50: > 200 µM
  IC50: > 200 µM

## O=C1N=C2SCCCN2C1(c1ccccc1)c1ccccc1
  EC50: > 200 µM
  IC50: > 200 µM

## N#CNC(=NCc1ccccc1)NCCc1c[nH]c2ccccc12
  EC50: 145 µM
  IC50: 162 µM

## CC(C)[C@@H]1OC(=O)[C@@H](C)NC(=O)[C@@H]2CCCN2C1=O (HELM PEPTIDE1{[CC(C)[C@H](O[*:1])C(=O)[*:2]].P.[dA]}$PEPTIDE1,PEPTIDE1,1:R1-3:R2$$$V2.0)
  EC50: > 200 µM
  IC50: > 200 µM

## CN1CCN(CCn2c3c4ccccc4ccc3c3oc(=O)c4ccccc4c32)CC1
  EC50: > 100 µM
  IC50: 3.02 µM

## N#C/C(=C\NC(=S)Nc1ccccc1Cl)C(=O)c1ccc2ccccc2c1
  EC50: > 200 µM
  IC50: 141 µM

## COc1ccc(NC(=O)CC/C(CC(=O)c2ccco2)=N/NC(N)=S)cc1
  outcome: inactive

## O=C1CN(O)C(c2ccccc2)=c2cc(Cl)ccc2=N1
  EC50: > 200 µM
  IC50: > 200 µM

## O/N=C1/C(=C/c2ccc3c(c2)OCO3)CCCC1C(NO)c1ccc2c(c1)OCO2 (stereo not drawn)
  EC50: > 12.6 µM
  IC50: > 12.6 µM

## Cc1nc2nn(Cc3ccccc3)cc2c(=O)o1
  EC50: > 1020 µM
  IC50: 57.5 µM

## CC(C)(C)c1cc(CCC(=O)Nc2ccc(Cl)cc2)[nH]c(=S)n1
  EC50: > 513 µM
  IC50: > 513 µM

## O=C1c2cccc3cc([N+](=O)[O-])cc(c23)C(=O)N1Nc1ccc([N+](=O)[O-])cc1[N+](=O)[O-]
  EC50: > 200 µM
  IC50: 9.77 µM

## CCCCCC(/C=N/N)C(O)(C(F)(F)F)C(F)(F)F (stereo not drawn)
  EC50: > 200 µM
  IC50: 1.48 µM

## CCOC(=O)c1cnc2ccc(C)cn2c1=O
  outcome: inactive

## CCOC(=O)c1ccc(CSc2ccccc2C(=O)O)c([N+](=O)[O-])c1
  EC50: > 14.5 µM
  IC50: > 14.5 µM

## OCC1CC2CC1C1(C2)OCCO1 (stereo not drawn)
  outcome: inactive

## CC(=O)c1ccc(NC(=O)COC(=O)c2cccc3c(=O)c4ccccc4[nH]c23)cc1
  outcome: inactive
